From US10575485B2, “Wheat plants having increased resistance to imidazolinone herbicides” (The Department of Agriculture, Western Australia, priority 2002, dated 2020)

What was measured:
[1] = test system: AHAS extracted from wild type and tolerant wheat plants; assay: In vitro AHAS enzyme activity in the presence of imidazolinone herbicide; assay type: biochemical, Triticum aestivum
Text: Because the tolerance in K-42 and Br-8 is due to a mutation in the AHAS enzyme rendering it resistant to inhibition by imidazolinone herbicides, the in vitro activity of AHAS extracted from wild type plants (not having the mutation for tolerance) can be compared to the in vitro activity of AHAS extracted from tolerant plants in the presence of varying concentrations of an imidazolinone herbicide. K-42 was compared to the wild type variety Krichauff, and Br-8 was compared to the wild type variety Brookton. […] As explained in Example 2, the in vitro AHAS enzyme activity can be compared among lines with and without a mutation conferring resistance to inhibition by imidazolinone herbicides. […]

[2] = test system: wheat plants (K-42, Br-8, K-42/Br-8, wild type Krichauff and Brookton); assay: Greenhouse herbicide tolerance, injury scored on a 0-9 scale; assay type: in vivo, Triticum aestivum; details: 40 and 120 g/ha
Experimental: Tolerance of K-42 and Br-8 to the imidazolinone herbicide imazamox was evaluated at 40 and 120 g/ha in the greenhouse. Wild type Krichauff and Brookton were used as herbicide susceptible controls. 24 plants were treated at each rate at the 2-3 leaf stage. Injury was scored on a 0-9 scale, 0 representing no injury and 9 representing plant death. FIG. 4 summarizes the data collected 14 and 21 days after treatment. In Example 1, reference was made to crosses between K-42, containing a mutation in Als3 conferring imidazolinone herbicide tolerance, and FS-2 and Br-8, each containing a mutation in Als1 also conferring imidazolinone herbicide tolerance. Krichauff and Brookton are the wheat varieties from which K-42 and Br-8, respectively, were derived. Lines derived from the K-42/FS-2 cross were tolerant to rates of up to six times that required for economic weed control in the field. One line derived from the K-42/Br-8 cross was evaluated in the greenhouse for tolerance to 40 and 120 grams/hectare of irnazamox. Injury was scored on a 0-9 scale, 0 representing no injury and 9 representing plant death.

[3] = test system: Triticum aestivum wheat lines K-42 and Br-8; assay: Seed soak and spray selection of mutagenised wheat lines for imazamox tolerance; assay type: in vivo; details: M3 seed soaked in 50 ppm solution for 24 hours, subsequent plants sprayed with 50 ppm
Experimental: 840 grams of seed of the Triticum aestivuni wheat varieties Krichauff and Brookton were soaked in a sodium azide solution (0.065 g/L) to produce M1 seed. M1 plants were allowed to self pollinate to produce M2 seed. M2 seed were soaked in a 50 ppm solution of the imidazolinone herbicide imazamox for 24 hours prior to sowing in the field. Resultant plants that appeared to have normal growth eight to nine weeks after sowing were transplanted from the field to a greenhouse for M3 seed production. To confirm herbicide tolerance, M3 seed were soaked in a 50 ppm solution of imazamox for 24 hours prior to sowing, and subsequent plants were sprayed with a solution of 50 ppm of imazamox.

Structure (SMILES)	Percent uninhibited AHAS activity in the Br-8/K-42 combination (FIG. 7) ([1]; four highest herbicide concentrations, compared with Br-8, K-42 and wild type)	Resistance and injury of K-42 and BR-8 relative to wild type counterparts (FIG. 4) ([2]; 2-3 leaf stage, 14 and 21 days after treatment)	Tolerance and injury of the line derived from the K-42/Br-8 cross (FIG. 6) ([2]; injury 0-9 scale)	Residual uninhibited AHAS in Br-8 and K-42 ([1]; 100 μM imazamox)	Uninhibited AHAS enzyme activity with increasing herbicide concentration (FIG. 5) ([1]; wild type Krichauff and Brookton versus K-42 and Br-8)	Herbicide tolerance of M2-derived lines K-42 and Br-8 [3]
CCc1cnc(C2=NC(C)(C(C)C)C(=O)N2)c(C(=O)O)c1 (stereo not drawn) [imazethapyr]	increase in percent uninhibited AHAS activity	–	–	–	–	–
COCc1cnc(C2=NC(C)(C(C)C)C(=O)N2)c(C(=O)O)c1 (stereo not drawn) [imazamox]	–	increased resistance and decreased injury	greatly enhanced tolerance at both 40 and 120 g/ha with very little injury	sufficient to provide a herbicide tolerant response	decreased faster in wild type lines than in either Br-8 or K-42	identified as tolerant to imazamox
